{
  "source": "paper PMC11876601",
  "about": "(Molecular Systems Biology, 2025)",
  "key": {"p-sites in AsPC-1 cells": {"test_system": "p-sites in AsPC-1 cells", "assay": "Phosphoproteomics 1 µM GEM vs. vehicle (4 h)", "type": "cell-based, human", "protocol": "Cell culture medium was replaced 24 h after seeding. […] For time point 0, AsPC-1 cells were treated with a vehicle and lysed immediately. The final DMSO concentration in all experiments was 0.2%.\nBriefly, cells were washed twice with PBS and lysed in SDS lysis buffer (2% SDS in 40 mM Tris-HCl, pH 7.6), followed by sonication for 10 min (30 s on/30 s off) using a Bioruptor (Diagenode). For DNA hydrolysis, samples were boiled at 95 °C for 10 min and incubated with 2% trifluoroacetic acid (TFA) for 1 min, before the reaction was quenched using 4% N-methylmorpholine. Lysate was cleared by centrifugation at 11,000 × g for 5 min and protein concentration was determined using the Pierce BCA Protein Assay Kit (Thermo Scientific).\nUsing 70% ethanol, samples were then precipitated on beads, followed by washing thrice with 80% ethanol and once with 100% acetonitrile. Subsequently, proteins were reduced and alkylated using 10 mM TCEP, 50 mM chloroacetamide, and 2 mM CaCl2 in 100 mM EPPS/NaOH, pH 8.5 for 1 h at 37 °C, followed by tryptic digestion at 37 °C for 16 h. Peptides were acidified with 1% TFA and desalted on Chromabond HLB plates (30 µm particle size, 10 mg capacity, Machery-Nagel), using 0.1% TFA for equilibration and sample loading, and 0.1% TFA in 70% acetonitrile for peptide elution. Recovered peptides were freeze-dried by vacuum-centrifugation and stored at −20 °C.\nDepending on the experiment, samples were either labeled with TMT-11plex (decryptM), TMT-10plex (non-decryptM, quadruplicates), or TMTpro reagent (time-series; all Thermo Scientific). Therefore, dried peptides were reconstituted in 15 µl 100 mM EPPS, pH 8.5 and each treatment condition was labeled with one channel of the respective TMT reagent (5 µl of 25 µg/µl reagent, Appendix Tables S4–S6). The reaction was incubated for 1 h at 23 °C and subsequently quenched with 0.4% hydroxylamine. Then, samples were pooled, acidified with 1% formic acid, and freeze-dried by vacuum-centrifugation. Labeled peptide pools were desalted on C18 Sep-Pak cartridges (37–55 µm particle size, 50 mg capacity, Waters), using 0.1% formic acid as equilibration solvent, and 0.1% formic acid in 60% acetonitrile was used as elution solvent. Eluted peptides were freeze-dried and stored at −20 °C until further use.\nBasic reversed-phase (bRP) fractionation of peptides was performed on a Vanquish HPLC (Thermo Scientific). In short, dried peptides were reconstituted in 200 µl 25 mM ammonium bicarbonate, pH 8.0 and directly injected onto a Waters BEH130 XBridge C18 column (3.5 µm, 4.6 × 250 mm). […] Using an automated fraction collector, 96 fractions were collected between min 7 and 55 after injection. Fractions were acidified with 1% formic acid and pooled to 48 fractions, before they were freeze-dried and stored at −20 °C.\nImmobilized metal ion affinity chromatography (IMAC) enrichment of phosphorylated peptides was performed on the Bravo automated liquid handling platform using AssayMAP Fe(III)-NTA cartridges (Agilent). In brief, the 48 dried peptide fractions were reconstituted in 0.1% TFA in 80% acetonitrile and further pooled to 12 fractions (200 µl final volume per well). The phosphopeptide enrichment protocol embedded in the Agilent AssayMAP Bravo Protein Sample Prep Workbench v2.0 software was run. Thereby, the cartridges were first primed with 150 μl 0.1% TFA in acetonitrile at 300 μl/min, and equilibrated with 150 μl 0.1% TFA in 80% acetonitrile at 10 μl/min. Then, pooled fractions were loaded at 5 µl/min and further washed three times with 150 μl 0.1% TFA in 80% acetonitrile at 50 μl/min. Enriched peptides were eluted with 60 μl 1% ammonium hydroxide at 5 μl/min."}, "FRK": {"molecular_target": "FRK", "design": "method as in Reinecke et al. (2023)", "conditions": "5 cell line mix lysate, Kinobeads ε, ref Reinecke et al. (2023), cited from earlier work"}, "WEE1": {"test_system": "WEE1", "conditions": "WEE1, 5 cell line mix lysate, Kinobeads ε, ref Reinecke et al. (2023), cited from earlier work"}, "NUAK1": {"test_system": "NUAK1", "design": "method as in Reinecke et al. (2023)", "conditions": "NUAK1, 5 cell line mix lysate, Kinobeads ε, ref Reinecke et al. (2023); cited from earlier work"}, "RPS6KA3 [1]": {"test_system": "RPS6KA3", "design": "method as in Reinecke et al. (2023)", "conditions": "RPS6KA3, 5 cell line mix lysate, Kinobeads ε, ref Reinecke et al. (2023), cited from earlier work"}, "PRKAA1": {"test_system": "PRKAA1", "design": "method as in Reinecke et al. (2023)", "conditions": "PRKAA1, 5 cell line mix lysate, Kinobeads ε, ref Reinecke et al. (2023), cited from earlier work"}, "TGFBR2": {"test_system": "TGFBR2", "design": "method as in Klaeger et al. (2017)", "conditions": "lysate 4 cell line mix (Colo205, K-562, MV-4-11, and SK-N-BE(2)), Kinobeads y, ref Klaeger et al. (2017); cited from earlier work"}, "MOB1A;MOB1B": {"test_system": "MOB1A;MOB1B", "design": "method as in Klaeger et al. (2017)", "conditions": "4 cell line mix lysate, Kinobeads y, ref Klaeger et al. (2017); cited from earlier work"}, "CAMKK2": {"test_system": "CAMKK2", "design": "method as in Klaeger et al. (2017)", "conditions": "lysate 4 cell line mix (Colo205, K-562, MV-4-11, and SK-N-BE(2)), Kinobeads y, ref Klaeger et al. (2017); cited from earlier work"}, "MAPK8": {"test_system": "MAPK8", "design": "method as in Klaeger et al. (2017)", "conditions": "lysate 4 cell line mix (Colo205, K-562, MV-4-11, and SK-N-BE(2)), Kinobeads y, ref Klaeger et al. (2017); cited from earlier work"}, "RPS6KA3 [2]": {"test_system": "RPS6KA3", "design": "method as in Klaeger et al. (2017)", "conditions": "lysate 4 cell line mix (Colo205, K-562, MV-4-11, and SK-N-BE(2)), Kinobeads y, ref Klaeger et al. (2017); cited from earlier work"}, "MAP4K2": {"test_system": "MAP4K2", "design": "method as in Klaeger et al. (2017)", "conditions": "MAP4K2, 4 cell line mix lysate, Kinobeads y, ref Klaeger et al. (2017); cited from earlier work"}},
  "note": "“And” between values parts separate entries of the source, which are not always exact repeats. Equal values may be shown once. Read-outs that look alike come from different tables or passages of the source.",
  "data": [
    {"smiles": "Nc1ccn([C@@H]2O[C@H](CO)[C@@H](O)C2(F)F)c(=O)n1", "note": "[GEM, Gemcitabine]", "values": [
      {"measurement": "increase of CHEK1-pS468 phosphorylation upon GEM", "setting": "p-sites in AsPC-1 cells; 1 µM GEM vs. vehicle", "result": "> 18 fold and 18 fold"},
      {"measurement": "increase of LRRC42-pS385 upon GEM", "setting": "p-sites in AsPC-1 cells; 1 µM GEM vs. vehicle", "result": "4.8 fold and ~ 5 fold"},
      {"measurement": "increase of NSUN5-pS432 upon GEM", "setting": "p-sites in AsPC-1 cells; 1 µM GEM vs. vehicle", "result": 7, "unit": "fold"},
      {"measurement": "increase of PNISR-pS706 upon GEM", "setting": "p-sites in AsPC-1 cells; 1 µM GEM vs. vehicle", "result": 4.6, "unit": "fold"},
      {"measurement": "induction of HMGA1 pS9 by GEM", "setting": "p-sites in AsPC-1 cells; 1 µM GEM vs. vehicle", "result": "> 4", "unit": "fold"},
      {"measurement": "induction of HMGA1 pS44 by GEM", "setting": "p-sites in AsPC-1 cells; 1 µM GEM vs. vehicle", "result": "> 4", "unit": "fold"},
      {"measurement": "induction of PPM1G pS201 by GEM", "setting": "p-sites in AsPC-1 cells; 1 µM GEM vs. vehicle", "result": "> 4", "unit": "fold"},
      {"measurement": "induction of TSEN34 pS136 by GEM", "setting": "p-sites in AsPC-1 cells; 1 µM GEM vs. vehicle", "result": "> 4", "unit": "fold"},
      {"measurement": "GEM Regulation, PPM1G S201", "setting": "p-sites in AsPC-1 cells; 1,000 nM GEM vs. vehicle, n=4", "result": "up"},
      {"measurement": "GEM Regulation, RALY S176", "setting": "p-sites in AsPC-1 cells; 1,000 nM GEM vs. vehicle, n=4", "result": "up"},
      {"measurement": "GEM_log2FC, PPM1G S201", "setting": "p-sites in AsPC-1 cells; 1,000 nM GEM vs. vehicle, n=4", "result": 2.66, "unit": "log2"},
      {"measurement": "GEM_log2FC, RALY S176", "setting": "p-sites in AsPC-1 cells; 1,000 nM GEM vs. vehicle, n=4", "result": 3.08, "unit": "log2"}
    ]},
    {"smiles": "COc1cc(N2CCC(N3CCN(C)CC3)CC2)ccc1Nc1ncc(Cl)c(Nc2ccccc2P(C)(C)=O)n1", "note": "[Brigatinib]", "values": [
      {"measurement": "Kd", "setting": "FRK; read-out: KDapp", "result": 53, "unit": "nM"},
      {"measurement": "EC50", "setting": "FRK", "result": 156, "unit": "nM"},
      {"measurement": "pKDapp", "setting": "FRK", "result": 7.28},
      {"measurement": "EC50", "setting": "WEE1", "result": 1950, "unit": "nM"},
      {"measurement": "pKDapp", "setting": "WEE1", "result": 5.91},
      {"measurement": "Kd", "setting": "WEE1; read-out: KDapp", "result": 1240, "unit": "nM"},
      {"measurement": "EC50", "setting": "NUAK1", "result": 532, "unit": "nM"},
      {"measurement": "EC50", "setting": "RPS6KA3 [1]", "result": 162, "unit": "nM"},
      {"measurement": "pKDapp", "setting": "RPS6KA3 [1]", "result": 6.93},
      {"measurement": "Kd", "setting": "RPS6KA3 [1]; read-out: KDapp", "result": 118, "unit": "nM"},
      {"measurement": "EC50", "setting": "PRKAA1", "result": 1110, "unit": "nM"},
      {"measurement": "pKDapp", "setting": "PRKAA1", "result": 6.15},
      {"measurement": "Kd", "setting": "PRKAA1; read-out: KDapp", "result": 709, "unit": "nM"}
    ]},
    {"smiles": "C[C@]12O[C@H](C[C@]1(O)CO)n1c3ccccc3c3c4c(c5c6ccccc6n2c5c31)CNC4=O", "note": "[Lestaurtinib]", "values": [
      {"measurement": "EC50", "setting": "TGFBR2", "result": "[…]"},
      {"measurement": "EC50", "setting": "MOB1A;MOB1B", "result": 34, "unit": "nM"},
      {"measurement": "EC50", "setting": "CAMKK2", "result": "[…]"},
      {"measurement": "EC50", "setting": "MAPK8", "result": 1210, "unit": "nM"},
      {"measurement": "EC50", "setting": "RPS6KA3 [2]", "result": 2790, "unit": "nM"},
      {"measurement": "EC50", "setting": "MAP4K2", "result": "[…]"}
    ]}
  ]
}
